Assay results reported in patent EP1976513B1 (priority 2006, dated 2007).

The molecules below were run against T1, human dopamine reuptake transporter (Homo sapiens, UniProt Q01959) (assay: cell-based). Details: recombinant human dopamine transporter (DAT); read-out: Human IC50 (nM) hDAT.
T1 construct: expressed in transfected cells; host or cells: CHO-K1 or HEK293
T1 sequence (Q01959 whole entry): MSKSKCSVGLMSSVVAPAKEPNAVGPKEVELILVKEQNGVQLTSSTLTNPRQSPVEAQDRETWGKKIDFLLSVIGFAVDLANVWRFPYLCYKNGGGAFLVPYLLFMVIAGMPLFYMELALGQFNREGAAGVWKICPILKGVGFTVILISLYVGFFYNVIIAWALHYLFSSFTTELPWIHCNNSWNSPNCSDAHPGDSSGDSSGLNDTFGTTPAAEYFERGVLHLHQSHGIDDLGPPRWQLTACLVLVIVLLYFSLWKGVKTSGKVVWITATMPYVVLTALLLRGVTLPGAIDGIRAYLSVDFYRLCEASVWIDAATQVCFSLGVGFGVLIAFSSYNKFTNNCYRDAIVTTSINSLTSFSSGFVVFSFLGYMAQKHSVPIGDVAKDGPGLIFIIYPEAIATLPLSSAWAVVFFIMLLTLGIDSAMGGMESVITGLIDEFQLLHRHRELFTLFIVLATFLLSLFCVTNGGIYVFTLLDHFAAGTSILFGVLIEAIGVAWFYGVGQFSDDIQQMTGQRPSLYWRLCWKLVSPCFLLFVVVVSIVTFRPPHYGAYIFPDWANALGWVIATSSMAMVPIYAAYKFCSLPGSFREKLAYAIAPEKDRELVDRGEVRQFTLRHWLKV
`CN(C)C[C@]1(c2ccc(Cl)c(Cl)c2)CCC[C@H](O)C1` (relative stereo) [Compound 203, cis-3-(3,4-dichlorophenyl)-3-((dimethylamino)methyl)cyclohexanol] was tested, and the IC50 was 1.4 nM. In the case of `CNC(C)C1(c2cccc3ccccc23)CCCCC1` (single isomer, unassigned) [59 E1, N-methyl-1-(1-(naphthalen-1-yl)cyclohexyl)ethanamine], the IC50 is reported as 1750 nM. `CNC(C)C1(c2cccc3ccccc23)CCCCC1` (single isomer, unassigned) [59 E2, N-methyl-1-(1-(naphthalen-1-yl)cyclohexyl)ethanamine] gave an IC50 of 3870 nM. For `CCC(NC)C1(c2ccc(Cl)c(Cl)c2)CCCCC1` (single isomer, unassigned) [62 E1, 1-(1-(3,4-dichlorophenyl)cyclohexyl)-N-methylpropan-1-amine], the IC50 was 39 nM. `CCC(NC)C1(c2ccc(Cl)c(Cl)c2)CCCCC1` (single isomer, unassigned) [62 E2, 1-(1-(3,4-dichlorophenyl)cyclohexyl)-N-methylpropan-1-amine] showed an IC50 of 4 nM. In the case of `CNCC1(c2ccc(OC(F)(F)F)cc2)CCCCC1O` (single isomer, unassigned) [146 E1, trans-2-((Methylamino)methyl)-2-(4-(trifluoromethoxy)phenyl) cyclohexanol], the IC50 is reported as > 10000 nM. For `CNCC1(c2ccc(OC(F)(F)F)cc2)CCCCC1O` (single isomer, unassigned) [146 E2, trans-2-((Methylamino)methyl)-2-(4-(trifluoromethoxy)phenyl) cyclohexanol], the IC50 was > 10000 nM. `COc1ccc(C2(CN(C)C)CCCCC2O)cc1` (single isomer, unassigned) [155 E1, Cis-2-((dimethylamino)methyl)-2-(4-methoxyphenyl)cyclohexanol] was tested, and the IC50 was > 10000 nM. For `COc1ccc(C2(CN(C)C)CCCCC2O)cc1` (single isomer, unassigned) [155 E2, Cis-2-((dimethylamino)methyl)-2-(4-methoxyphenyl)cyclohexanol], the IC50 was > 10000 nM. `CN(C)CC1(c2ccc(Cl)c(Cl)c2)CCCC(F)(F)C1` (single isomer, unassigned) [206 E1, 1-(1-(3,4-dichlorophenyl)-3,3-difluorocyclohexyl)-N,N-dimethylmethanamine] showed an IC50 of 59 nM. `CN(C)CC1(c2ccc(Cl)c(Cl)c2)CCCC(F)(F)C1` (single isomer, unassigned) [206 E2, 1-(1-(3,4-dichlorophenyl)-3,3-difluorocyclohexyl)-N,N-dimethylmethanamine] was tested, and the IC50 was < 1 nM. With `NCC1(c2ccc(F)c(Cl)c2)CCCCC1` [Compound 32, (1-(3-chloro-4-fluorophenyl)cyclohexyl)-methanamine] the IC50 was 424 nM.

These molecules were tested against human serotonin reuptake transporter (Homo sapiens, UniProt P31645) (assay: cell-based). Details: Human IC50 (nM) hSERT, recombinant human serotonin transporter (SERT).
Sequence of human serotonin reuptake transporter (P31645 whole entry): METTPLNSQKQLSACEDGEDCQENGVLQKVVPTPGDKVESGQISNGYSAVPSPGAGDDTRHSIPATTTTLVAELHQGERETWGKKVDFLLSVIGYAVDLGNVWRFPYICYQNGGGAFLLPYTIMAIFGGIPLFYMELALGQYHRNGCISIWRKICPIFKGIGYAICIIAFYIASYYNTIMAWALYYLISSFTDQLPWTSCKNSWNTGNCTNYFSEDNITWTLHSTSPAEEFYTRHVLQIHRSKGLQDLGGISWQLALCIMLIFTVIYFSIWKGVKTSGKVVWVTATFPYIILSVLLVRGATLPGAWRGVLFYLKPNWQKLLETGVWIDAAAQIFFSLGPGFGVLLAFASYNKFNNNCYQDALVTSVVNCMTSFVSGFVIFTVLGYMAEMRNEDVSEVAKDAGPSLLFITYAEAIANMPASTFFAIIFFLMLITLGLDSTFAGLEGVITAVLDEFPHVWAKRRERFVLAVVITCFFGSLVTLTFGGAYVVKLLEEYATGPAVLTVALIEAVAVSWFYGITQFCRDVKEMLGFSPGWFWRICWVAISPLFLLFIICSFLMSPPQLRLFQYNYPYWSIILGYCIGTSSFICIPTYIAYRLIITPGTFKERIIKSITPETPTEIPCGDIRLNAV
With `CNCC1(c2cccc(C(F)(F)F)c2)CCCCC1` [Compound 104, N-methyl-1-(1-(3-(trifluoromethyl)phenyl)-cyclohexyl)methanamine] the IC50 was 9490 nM.

Same assay, conditions: recombinant human serotonin transporter (SERT); read-out: Human IC50 (nM) hSERT
Molecule `CC(N)C1(c2ccc(-c3ccco3)cc2)CCCCC1` (stereo not shown) [Compound 22, 1-(1-(4-(furan-2-yl)phenyl)cyclohexyl)ethanamine] has an IC50 of 296 nM. `CNCC1(c2ccc(OC(F)(F)F)cc2)CCC(C)(O)CC1` (stereo not shown) [Compound 247, 1-methyl-4-((methylamino)methyl)-4-(4-(trifluoromethoxy)phenyl)cyclohexanol] was tested, and the IC50 was 707 nM. `CN(C)CC1(c2ccc(OC(F)(F)F)cc2)CCC(O)CC1` (stereo not shown) [Compound 250, 4-((dimethylamino)methyl)-4-(4-(trifluoromethoxy)phenyl)cyclohexanol] showed an IC50 of 47 nM. Molecule `CNCC1(c2ccc(Cl)c(Cl)c2)CCC(F)(F)CC1` [Compound 268, 1-(1-(3,4-dichlorophenyl)-4,4-difluorocyclohexyl)-N-methylmethanamine] has an IC50 of 704 nM. In the case of `CC1(O)CCC(CN)(c2ccc(Cl)c(Cl)c2)CC1` (stereo not shown) [Compound 272, 4-(aminomethyl)-4-(3,4-dichlorophenyl)-1-methylcyclohexanol], the IC50 is reported as > 10000 nM. In the case of `CC1(O)CCC(CN)(c2ccc(Cl)c(Cl)c2)CC1` (stereo not shown) [Compound 275, 4-(aminomethyl)-4-(3,4-dichlorophenyl)-1-methylcyclohexanol], the IC50 is reported as 1190 nM.
